In US11077102B2, “Multidose package, course and method of treatment for delivering predetermined multiple doses of a pharmaceutical” (BAUSCH HEALTH IRELAND LIMITED, priority 2009, dated 2021):

Test: Stability of formulation in multi-dose container (Rexam 2.05 mL Sof' Airless)
Assay type: physicochemical
Method: Once a candidate package is identified, stability trials are carried out to determine compatibility of the formulation with the container components. Testing is carried out on the formulation packed in the selected containers and stored under a number of controlled conditions (e.g., 40° C./75% RH and 25° C./60% RH) for a specified time up to the expiry date of the product. Tests will include determination of imiquimod content, preservative content, impurity content, appearance, microscopic examination, pH levels and visual container assessment against set standards.
Two batches of Aldara cream were dispensed into Rexam™ 2.05 mL Sof' Airless™ containers. The batches had been previously tested to determine the amount of preservatives (methyl hydroxybenzoate (MHB), propyl hydroxybenzoate (PHB) benzyl alcohol) and imiquimod, at the beginning of the study in Table 4 below.
The batches were stored under various conditions and then analyzed at 2 months, 4 months, 5.5 months and 13 months as shown in Tables 5 to 7 below. The presence of the contaminant 4-OH-R837 was also tested. NOTE: 4-OH-R837 is an Imiquimod impurity.

CC(C)Cn1cnc2c(=O)[nH]c3ccccc3c21 [4 Hydroxy Imipquimod, 4-Hydroxyimiquimod]
Impurity level in Aldara cream in multi-dose container (up to and including 13 months): below detection limits

OCc1ccccc1 [Benzyl alcohol, benzyl alcohol]
Benzyl alcohol levels in Aldara cream in multi-dose container (40 C/75% RH, up to 13 months, lower specification limit 1.00% w/w): just below the lower specification limit

COC(=O)c1ccc(O)cc1 [MHB, methyl hydroxybenzoate]
Stability in Aldara cream in multi-dose container (up to and including 13 months, both 25 C/60% RH and 40 C/75% RH): good stability
